According to patent publication US20210137890A1, “DEUTERATED IMIDAZOLIDINEDIONE COMPOUNDS AND THEIR USES” (priority 2018, published 2021):
“Also recorded” adds a separate entry of the source. Read-outs that look alike come from different tables or passages of the source.

What was measured:
[1] = mouse, in vivo
[2] = dog, in vivo, 90 mg/kg
[3] = Clinical pharmacokinetic study of HC-1119 (Stage A, plasma M0, M1, M2); details: steady state, 80 mg HC-1119
Experimental: Single dose biological sample collection: Subjects were given a single fasting dose on the first day of the study. Blood samples were collected before (−0.5˜0 h) and after administration 0.5, 0.75, 1, 2 h (±5 min), 4, 8, 12 h (±15 min), 24 h (±30 min, Day 2 before administration). Venous blood (3 mL) was collected, set in an anticoagulant tube (type of anticoagulant was based on established analytical test methods).
Continuous administration of biological samples collected: Blood sample collected on continuous administration Day 7, 21, 35, 42, 56, 70, 84 before administration, on Day 84 after administration 0.5, 0.75, 1, 2 h (±5 min), 4, 8, 12 h (±15 min), 24 h (±30 min, Day 85 before administration). Venous blood (3 mL) was collected, set in an anticoagulant tube (type of anticoagulant was based on established analytical test methods).
Sample Handling: Samples were centrifuged (about 3000 rpm for 10 minutes) to separate the plasma as soon as possible. Isolated plasma samples were stored in duplicate in plasma cryostat, with the tagged population's enrollment number, subject's initials, date and time of collection. Plasma samples were stored in −60° C.˜−80° C. freezer as soon as possible. One blood sample was retained at the research center and one blood sample was shipped to a specialist testing company for plasma drug concentration determination.

serum PSA = details: mCRPC patients
Experimental: There were two (2) stages or arms to the study, Stage A and Stage B.
During Stage A, the dose escalation tolerance (or tolerability) study was conducted using the traditional rule-based 3+3 design. All subjects in Stage A were involved in pharmacokinetic studies. […]
Stage A: PSA was dynamically observed to assess the initial dose-effectiveness based on data from subjects in each dose group until the end of the 12-week trial period. Serum PSA test, safety evaluation (including blood, liver and kidney function, electrocardiogram, etc.) were performed at the 6th, 8th, 10th and 12th weeks of visit, and the trial ended at the 12th week of visit.
They show the percentage change in PSA levels for subjects in the study. In both figures, the vertical axis represents the percent change in PSA levels from the baseline and the horizontal axis (numbers that are in line with the “0%”) identifies individual patient or subject numbers.

[4] = In vitro activity of metabolites M1 and M2; details: in vitro experiments
[5] = Brain penetration of parental drug and metabolites in mice (PD study); details: mouse, po, 10 mg/kg
[6] = Phase I dose escalation study, human; cited from earlier work
LNCaP = LNCaP growth inhibition; assay type: cell-based
AR = molecular target: T1, AR (Homo sapiens, UniProt P10275); details: read-out: Ki for AR binding
T1 sequence (P10275 1-920): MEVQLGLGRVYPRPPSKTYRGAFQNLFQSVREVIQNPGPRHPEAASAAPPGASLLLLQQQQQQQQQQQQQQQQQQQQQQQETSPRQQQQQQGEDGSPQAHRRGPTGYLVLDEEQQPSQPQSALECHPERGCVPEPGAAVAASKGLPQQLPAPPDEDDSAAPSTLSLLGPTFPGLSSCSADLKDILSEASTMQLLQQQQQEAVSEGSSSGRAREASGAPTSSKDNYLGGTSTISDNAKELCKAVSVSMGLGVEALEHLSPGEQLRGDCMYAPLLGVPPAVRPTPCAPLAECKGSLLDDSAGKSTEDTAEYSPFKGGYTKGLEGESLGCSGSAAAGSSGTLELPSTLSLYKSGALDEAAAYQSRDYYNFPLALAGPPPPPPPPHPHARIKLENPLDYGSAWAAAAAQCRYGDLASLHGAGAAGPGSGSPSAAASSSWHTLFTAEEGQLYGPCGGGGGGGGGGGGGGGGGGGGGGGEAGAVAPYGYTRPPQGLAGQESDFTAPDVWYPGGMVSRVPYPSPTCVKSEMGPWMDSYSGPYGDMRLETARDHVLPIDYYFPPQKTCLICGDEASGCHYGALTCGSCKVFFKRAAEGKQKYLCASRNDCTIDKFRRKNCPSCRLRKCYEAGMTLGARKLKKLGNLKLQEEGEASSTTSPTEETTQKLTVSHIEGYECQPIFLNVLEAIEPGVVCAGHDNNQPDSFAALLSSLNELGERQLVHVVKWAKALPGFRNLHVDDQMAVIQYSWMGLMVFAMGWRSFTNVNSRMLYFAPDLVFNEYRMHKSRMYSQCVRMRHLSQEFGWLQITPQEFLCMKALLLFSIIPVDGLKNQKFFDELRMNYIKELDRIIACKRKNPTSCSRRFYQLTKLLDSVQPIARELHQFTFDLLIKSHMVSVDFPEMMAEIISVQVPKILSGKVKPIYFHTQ

## [2H]C([2H])([2H])NC(=O)c1ccc(N2C(=S)N(c3ccc(C#N)c(C(F)(F)F)c3)C(=O)C2(C)C)cc1F [HC-1119, 4-{3-[4-cyano-3-(trifluoromethyl)phenyl]-5,5-dimethyl-4-oxo-2-thio-1-imidazolidinyl}-2-fluoro-N-trideuteromethylbenzamide]
[1]; po, 10 mg/kg
  Brain: 1393 ng/g
  Plasma: 4686 ng/mL
[2]
  adult equivalent dose (HED) calculated from HNSTD: 2916 mg/day
[3]
  C24 h for the combination of the active drugs (M0+M2): close to that of 160 mg enzalutamide
Serum PSA; 40 mg dose group
  maximum decrease in PSA levels by more than 50% from the baseline (maximum response rate): 66.7%
  rate of decrease in PSA levels by more than 50% from the baseline (response rate at week 12): 66.7%
Serum PSA; 80 mg dose group
  maximum decrease in PSA levels by more than 50% from the baseline (maximum response rate): 88.8%
  rate of decrease in PSA levels by more than 50% from the baseline (response rate at week 12): 75%
Serum PSA; 160 mg dose group
  maximum decrease in PSA levels by more than 50% from the baseline (maximum response rate): 50%
  rate of decrease in PSA levels by more than 50% from the baseline (response rate at week 12): 57.1%
Serum PSA; 200 mg dose group
  maximum decrease in PSA levels by more than 50% from the baseline (maximum response rate): 100%
  rate of decrease in PSA levels by more than 50% from the baseline (response rate at week 12): 33.3%

## CC1(C)C(=O)N(c2ccc(C#N)c(C(F)(F)F)c2)C(=S)N1c1ccc(C(=O)O)c(F)c1 [M1]
[4]
  in vitro activity: inactive; also recorded: not active

## CNC(=O)c1ccc(N2C(=S)N(c3ccc(C#N)c(C(F)(F)F)c3)C(=O)C2(C)C)cc1F [enzalutamide]
[5]; brain
  concentration at 24 h: 647 ng/g
[5]; brain/plasma
  Kp at 24 h: 0.31
[5]; plasma
  concentration at 24 h: 2100 ng/mL
[6]
  maximum tolerable dosage (MTD): 240 mg/day

## CC1(C)C(=O)N(c2ccc(C#N)c(C(F)(F)F)c2)C(=S)N1c1ccc(C(N)=O)c(F)c1 [M2]
[1]
  crossing of the blood-brain barrier (BBB): more readily cross the blood-brain barrier
LNCaP
  IC50: 0.13 nM
AR
  Ki: 57 nM
